Test results taken from ChEMBL document CHEMBL1201862, “PubChem BioAssay data set” (2004).
Active and inactive are the calls of the source.

Legend:
NIH3T3 = experiment: cytotoxicity in NIH-3T3 fibroblasts, dose response, cytotoxicity control for antifungal drug resistance project, cell-based, Alamar Blue, fluconazole, dry powder (AID 488809); type: functional; conditions: Mus musculus
Candida albicans = experiment: growth inhibition of resistant C. albicans, dose response, CaCi-8, fluconazole, Alamar Blue, dry powder (AID 488807); type: functional, organism-based
DNA topoisomerase = DNA topoisomerase (Yersinia pestis, UniProt A0A2S9PM60); experiment: Y. pestis Topo-I inhibitors, cleavage product readout, dose response, biochemical, cherry-pick (AID 588525)
Chain of DNA topoisomerase (A0A2S9PM60 whole entry): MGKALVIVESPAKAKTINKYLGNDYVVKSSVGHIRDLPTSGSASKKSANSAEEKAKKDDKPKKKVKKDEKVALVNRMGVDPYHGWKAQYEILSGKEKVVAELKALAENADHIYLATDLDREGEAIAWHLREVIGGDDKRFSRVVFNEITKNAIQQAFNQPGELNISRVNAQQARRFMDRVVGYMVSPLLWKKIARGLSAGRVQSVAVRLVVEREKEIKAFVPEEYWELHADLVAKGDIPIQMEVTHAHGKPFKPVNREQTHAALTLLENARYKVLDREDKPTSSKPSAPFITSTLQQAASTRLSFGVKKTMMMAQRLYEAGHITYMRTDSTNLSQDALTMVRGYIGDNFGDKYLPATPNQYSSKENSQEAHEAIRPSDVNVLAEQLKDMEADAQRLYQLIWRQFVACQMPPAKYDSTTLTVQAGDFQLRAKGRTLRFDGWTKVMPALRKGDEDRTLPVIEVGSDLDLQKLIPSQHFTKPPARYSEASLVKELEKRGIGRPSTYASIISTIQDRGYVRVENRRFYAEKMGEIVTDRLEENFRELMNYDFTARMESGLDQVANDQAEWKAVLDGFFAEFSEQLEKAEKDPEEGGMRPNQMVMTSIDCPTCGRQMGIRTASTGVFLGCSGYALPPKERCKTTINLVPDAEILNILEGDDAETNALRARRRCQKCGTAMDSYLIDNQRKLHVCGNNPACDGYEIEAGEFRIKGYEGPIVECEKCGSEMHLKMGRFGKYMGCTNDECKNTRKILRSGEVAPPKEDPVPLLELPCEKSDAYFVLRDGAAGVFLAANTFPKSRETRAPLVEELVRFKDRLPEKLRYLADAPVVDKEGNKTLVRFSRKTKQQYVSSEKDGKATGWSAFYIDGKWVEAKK

[1] = target: T1, Nuclear receptor subfamily 0 group B member 1 (Homo sapiens, UniProt P51843); type: functional, cell-based;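 also: HEK293T cells transfected with SF-1 and DAX-1 plus StAR promoter luciferase reporter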
T1 sequence (P51843 whole entry): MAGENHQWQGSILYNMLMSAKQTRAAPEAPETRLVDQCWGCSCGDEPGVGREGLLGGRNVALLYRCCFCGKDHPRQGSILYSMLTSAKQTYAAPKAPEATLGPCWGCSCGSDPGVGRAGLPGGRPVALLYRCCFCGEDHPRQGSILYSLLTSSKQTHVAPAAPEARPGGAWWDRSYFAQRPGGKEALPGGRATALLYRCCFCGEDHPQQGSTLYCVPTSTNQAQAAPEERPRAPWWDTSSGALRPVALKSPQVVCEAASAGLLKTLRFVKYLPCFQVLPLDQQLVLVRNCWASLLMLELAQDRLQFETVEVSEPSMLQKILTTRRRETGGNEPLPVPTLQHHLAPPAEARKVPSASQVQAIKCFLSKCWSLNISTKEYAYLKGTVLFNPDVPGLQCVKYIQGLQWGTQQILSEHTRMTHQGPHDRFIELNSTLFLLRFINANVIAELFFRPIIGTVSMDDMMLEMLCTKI

Escherichia coli = experiment: microbe, parasite or virus in culture
HEK293 = experiment: inhibitors of LMP1-driven NF-kB reporter, dose response, cell-based, HEK293, luciferase, cherry-pick (AID 588343); type: functional; conditions: Homo sapiens
cells = type: functional, cell-based
[2] = target: T2, Kappa-type opioid receptor (Homo sapiens, UniProt P41145); type: functional
T2 sequence (P41145 whole entry): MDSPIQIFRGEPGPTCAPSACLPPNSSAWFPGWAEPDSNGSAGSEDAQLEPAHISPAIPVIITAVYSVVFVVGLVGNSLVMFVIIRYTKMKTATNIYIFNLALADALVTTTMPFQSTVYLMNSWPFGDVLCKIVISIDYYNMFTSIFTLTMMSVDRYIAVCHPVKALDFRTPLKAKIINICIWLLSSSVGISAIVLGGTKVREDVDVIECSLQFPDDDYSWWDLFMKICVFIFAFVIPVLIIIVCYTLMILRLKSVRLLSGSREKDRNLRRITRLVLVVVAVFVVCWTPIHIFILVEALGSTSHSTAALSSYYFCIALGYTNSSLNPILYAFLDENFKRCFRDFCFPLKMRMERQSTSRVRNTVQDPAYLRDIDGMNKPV

[3] = target: T2, Kappa-type opioid receptor; type: functional; remark: listed apart in the source
Beta-arrestin-1 = Beta-arrestin-1 (Homo sapiens, UniProt P49407); experiment: inhibitors of arrestin peptide binding to AP2, dose response, biochemical, cherry pick 1, beta2-adaptin appendage, flow cytometry (AID 588783); type: functional
[4] = Luminescence Cell-Based Dose Response HTS to Identify Activators of Luciferase Translation or Activity in H4 […] Cells. [Related pubchem assays: 1829 (Project Summary), 1814 (Primary HTS)]; type: functional
[5] = Luminescence Cell-Based Dose Confirmation HTS to Identify Activators of 5'UTR Stem-Loop Driven Alpha-Synuclein mRNA Translation in H4 Neuroglioblastoma Cells. [Related pubchem assays: 1829 (Project Summary), 1814 (Primary HTS)]; type: functional
BJ [6] = experiment: cytotoxicity toward Ras-transformed BJeLR fibroblasts, dose response, cell-based, alamar blue fluorescence, cherrypicked samples (AID 2631); type: functional; conditions: Homo sapiens;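 also: confirmatory dose-response assay in RAS-dependent BJ fibroblasts engineered with TERT, LT and ST, with cytotoxicity read by fluorescence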
INS1 = experiment: beta cell apoptosis inhibitors, cytokine rescue, dose response, luminescence, retest (AID 449756); type: functional, cell-based; conditions: Rattus norvegicus;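 also: cell death triggered by IL-1 beta plus TNF-alpha plus IFN-gamma mixture; protective hits raise ATP signal compared with cytokine alone wells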
[7] = target: Sphingosine 1-phosphate receptor 1 (Homo sapiens, UniProt P21453); type: functional;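 also: Tango beta-arrestin reporter U2OS cells stimulated with S1P near its EC80; inhibitor potency meaning antagonism of receptor activation by the natural agonist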
Beta Lactamase = Beta Lactamase (Pseudomonas aeruginosa, UniProt Q932Y6); experiment: beta-lactamase reporter inhibitor potency, dose response, artefact control for TLR9-MyD88 binding inhibitor project, BLA reporter cells, FRET fluorescence (AID 588341); type: cell-based;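 also: cell based assay in CHO-K1 cells stably expressing beta-lactamase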
[8] = target: T3, Sphingosine 1-phosphate receptor 4 (Homo sapiens, UniProt O95977); experiment: Fluorescence dose response cell-based high throughput screening assay for antagonists of the Sphingosine 1-Phosphate Receptor 4 (S1P4). [Related pubchem assays: 1524 (Confirmation in triplicates.), 1510 (Primary screen.)]; type: functional
T3 sequence (O95977 whole entry): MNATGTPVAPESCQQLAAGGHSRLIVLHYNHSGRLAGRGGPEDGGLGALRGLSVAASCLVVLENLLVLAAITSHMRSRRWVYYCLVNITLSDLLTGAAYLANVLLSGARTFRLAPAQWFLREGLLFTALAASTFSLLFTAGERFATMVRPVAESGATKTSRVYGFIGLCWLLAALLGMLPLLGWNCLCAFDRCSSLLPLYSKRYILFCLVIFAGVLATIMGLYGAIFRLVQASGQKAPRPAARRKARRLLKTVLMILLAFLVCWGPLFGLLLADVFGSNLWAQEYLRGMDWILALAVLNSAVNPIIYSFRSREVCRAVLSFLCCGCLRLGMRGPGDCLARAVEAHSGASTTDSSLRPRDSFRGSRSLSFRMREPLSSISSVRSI

BJ [9] = experiment: cells; type: functional, cell-based; conditions: Homo sapiens
[10] = cytotoxicity in HEK-293T cells, dose response, cytotoxicity control for TCR NF-kB inhibitor project, luminescence, T-cell screen hits (AID 489026); type: functional, cell-based;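 also: cells exposed to compound about 14 hours before the viability readout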
[11] = target: Heat shock protein HSP 90-alpha (Homo sapiens, UniProt P07900); type: functional, organism-based
[12] = target: T4, Heat shock factor protein 1 (Mus musculus, UniProt P38532); experiment: inhibition of MG132-induced HSE-luciferase signal, confirmation, cell-based, NIH3T3, luminescence, dose retest (AID 2382); type: functional;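 also: NIH3T3 fibroblasts with HSF1-driven luciferase reporter stressed by proteasome inhibitor MG132; luminescence from HSF1-driven luciferase expression after 8 hours of MG132 stress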
T4 sequence (P38532 whole entry): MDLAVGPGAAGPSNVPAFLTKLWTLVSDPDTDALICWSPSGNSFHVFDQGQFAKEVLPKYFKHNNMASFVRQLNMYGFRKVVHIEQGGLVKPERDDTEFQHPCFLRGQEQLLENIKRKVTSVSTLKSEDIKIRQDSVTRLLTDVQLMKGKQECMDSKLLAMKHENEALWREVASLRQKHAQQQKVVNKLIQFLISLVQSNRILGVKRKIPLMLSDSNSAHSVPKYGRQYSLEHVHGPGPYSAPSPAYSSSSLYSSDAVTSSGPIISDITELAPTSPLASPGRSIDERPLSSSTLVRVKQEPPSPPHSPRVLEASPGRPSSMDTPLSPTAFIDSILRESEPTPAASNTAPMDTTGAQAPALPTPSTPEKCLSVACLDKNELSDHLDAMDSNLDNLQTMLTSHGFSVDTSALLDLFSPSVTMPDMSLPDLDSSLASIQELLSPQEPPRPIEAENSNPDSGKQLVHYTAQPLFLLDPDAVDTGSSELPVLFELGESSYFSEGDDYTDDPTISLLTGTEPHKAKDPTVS

[13] = target: DNA dC->dU-editing enzyme APOBEC-3G (Homo sapiens, UniProt Q9HC16); experiment: Dose Response confirmation of small molecule APOBEC3G DNA Deaminase Inhibitors via a fluorescence-based single-stranded DNA deaminase assay. [Related pubchem assays (depositor defined):AID493012, AID493028]; type: functional
CHO = experiment: cytotoxicity in TLR9-MyD88 CHO cells, dose response, cytotoxicity control for TLR9-MyD88 binding inhibitor project, cell-based, luminescence (AID 588339); type: functional, hamster; conditions: Cricetulus griseus;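 also: CHO cells stably coexpressing TLR9 and MyD88 fusions from primary screen; compound exposure lasted 48 hours before viability readout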
[14] = target: T5, Voltage-gated N-type calcium channel alpha-1B subunit/Amyloid beta A4 precursor protein-binding family A member 1 (Homo sapiens, UniProt Q00975+Q02410); type: protein assay
T5 sequence (Q00975 whole entry): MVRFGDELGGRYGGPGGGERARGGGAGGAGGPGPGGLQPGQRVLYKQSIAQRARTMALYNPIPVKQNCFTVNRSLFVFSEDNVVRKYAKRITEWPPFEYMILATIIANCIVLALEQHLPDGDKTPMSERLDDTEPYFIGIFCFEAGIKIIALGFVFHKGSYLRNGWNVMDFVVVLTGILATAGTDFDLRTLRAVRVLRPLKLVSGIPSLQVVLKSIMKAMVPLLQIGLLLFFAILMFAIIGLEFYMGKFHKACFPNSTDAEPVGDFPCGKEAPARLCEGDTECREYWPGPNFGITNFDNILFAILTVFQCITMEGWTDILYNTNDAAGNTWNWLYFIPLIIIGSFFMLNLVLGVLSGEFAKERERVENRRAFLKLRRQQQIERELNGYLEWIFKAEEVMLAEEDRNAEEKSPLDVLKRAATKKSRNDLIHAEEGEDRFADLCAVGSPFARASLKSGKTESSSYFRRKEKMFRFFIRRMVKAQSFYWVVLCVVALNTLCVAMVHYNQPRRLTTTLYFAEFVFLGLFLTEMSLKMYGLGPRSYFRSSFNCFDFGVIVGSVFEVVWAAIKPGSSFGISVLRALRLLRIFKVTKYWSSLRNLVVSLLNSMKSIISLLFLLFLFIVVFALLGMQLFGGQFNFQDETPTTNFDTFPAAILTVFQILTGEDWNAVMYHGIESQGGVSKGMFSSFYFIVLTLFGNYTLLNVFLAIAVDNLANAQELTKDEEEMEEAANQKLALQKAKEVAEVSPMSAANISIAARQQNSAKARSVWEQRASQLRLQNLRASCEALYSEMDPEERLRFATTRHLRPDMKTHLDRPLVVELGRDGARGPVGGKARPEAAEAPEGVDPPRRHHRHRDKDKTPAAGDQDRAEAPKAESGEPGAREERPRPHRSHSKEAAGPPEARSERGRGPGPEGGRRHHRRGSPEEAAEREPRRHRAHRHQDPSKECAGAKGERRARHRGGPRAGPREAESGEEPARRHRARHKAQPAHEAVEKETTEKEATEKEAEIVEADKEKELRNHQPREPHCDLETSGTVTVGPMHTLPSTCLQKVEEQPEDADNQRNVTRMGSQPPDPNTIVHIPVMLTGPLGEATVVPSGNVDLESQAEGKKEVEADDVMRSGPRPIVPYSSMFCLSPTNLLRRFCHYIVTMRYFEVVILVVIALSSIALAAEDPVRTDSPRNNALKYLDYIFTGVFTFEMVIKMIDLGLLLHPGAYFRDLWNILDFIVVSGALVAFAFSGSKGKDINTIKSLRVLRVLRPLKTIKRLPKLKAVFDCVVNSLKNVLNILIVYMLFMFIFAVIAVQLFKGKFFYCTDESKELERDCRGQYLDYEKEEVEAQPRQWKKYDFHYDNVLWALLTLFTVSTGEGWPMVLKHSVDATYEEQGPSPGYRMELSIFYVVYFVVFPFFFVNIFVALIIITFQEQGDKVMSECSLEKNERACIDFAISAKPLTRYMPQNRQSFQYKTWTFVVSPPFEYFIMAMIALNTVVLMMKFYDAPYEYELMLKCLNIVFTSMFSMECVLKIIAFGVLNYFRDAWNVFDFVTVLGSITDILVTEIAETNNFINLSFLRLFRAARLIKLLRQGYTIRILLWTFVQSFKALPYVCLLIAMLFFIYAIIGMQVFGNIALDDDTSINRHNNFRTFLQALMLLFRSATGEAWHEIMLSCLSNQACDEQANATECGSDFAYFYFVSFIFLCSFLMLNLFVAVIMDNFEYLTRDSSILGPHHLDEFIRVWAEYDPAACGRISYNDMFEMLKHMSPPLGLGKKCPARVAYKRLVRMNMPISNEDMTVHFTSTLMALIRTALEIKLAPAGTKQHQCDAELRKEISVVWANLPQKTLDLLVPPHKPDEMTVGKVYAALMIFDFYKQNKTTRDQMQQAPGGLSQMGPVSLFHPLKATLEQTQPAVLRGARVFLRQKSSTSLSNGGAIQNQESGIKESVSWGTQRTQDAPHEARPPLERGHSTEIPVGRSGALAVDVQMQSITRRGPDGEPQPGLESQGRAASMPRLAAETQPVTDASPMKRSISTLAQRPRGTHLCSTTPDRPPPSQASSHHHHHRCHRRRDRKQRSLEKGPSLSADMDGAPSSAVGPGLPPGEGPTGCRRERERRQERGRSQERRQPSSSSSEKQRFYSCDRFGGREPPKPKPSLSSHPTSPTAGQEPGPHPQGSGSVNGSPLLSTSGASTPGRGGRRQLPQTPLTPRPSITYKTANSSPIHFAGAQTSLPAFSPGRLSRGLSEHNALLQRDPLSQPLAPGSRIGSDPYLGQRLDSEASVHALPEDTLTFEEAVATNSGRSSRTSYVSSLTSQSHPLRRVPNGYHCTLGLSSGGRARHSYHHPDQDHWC
T5 sequence (Q02410 whole entry): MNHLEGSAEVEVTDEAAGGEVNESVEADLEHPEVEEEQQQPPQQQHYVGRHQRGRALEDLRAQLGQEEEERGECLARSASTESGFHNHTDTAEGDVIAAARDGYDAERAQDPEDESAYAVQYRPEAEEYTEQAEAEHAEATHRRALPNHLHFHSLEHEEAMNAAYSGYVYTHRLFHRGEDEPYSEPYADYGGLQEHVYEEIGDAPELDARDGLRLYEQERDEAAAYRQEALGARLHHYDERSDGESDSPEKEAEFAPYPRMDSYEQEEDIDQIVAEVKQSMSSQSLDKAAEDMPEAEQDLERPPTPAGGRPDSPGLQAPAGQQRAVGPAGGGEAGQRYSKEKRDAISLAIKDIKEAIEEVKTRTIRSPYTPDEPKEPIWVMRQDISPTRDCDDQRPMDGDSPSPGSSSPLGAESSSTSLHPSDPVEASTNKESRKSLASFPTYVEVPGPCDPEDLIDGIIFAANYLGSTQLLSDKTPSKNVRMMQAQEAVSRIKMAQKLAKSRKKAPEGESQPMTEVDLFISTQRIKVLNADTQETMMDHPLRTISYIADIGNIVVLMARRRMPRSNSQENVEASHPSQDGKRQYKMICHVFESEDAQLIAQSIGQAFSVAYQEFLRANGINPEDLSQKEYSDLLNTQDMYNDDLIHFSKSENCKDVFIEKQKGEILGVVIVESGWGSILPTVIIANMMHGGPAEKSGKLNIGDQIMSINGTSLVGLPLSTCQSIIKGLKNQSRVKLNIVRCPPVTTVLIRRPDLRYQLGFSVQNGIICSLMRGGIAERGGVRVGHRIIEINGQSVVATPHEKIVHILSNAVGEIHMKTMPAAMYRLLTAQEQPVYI

H4 = experiment: Luminescence Cell-Based Dose Response HTS to Identify Activators of 5'UTR Stem-Loop Driven Prion Protein mRNA Translation in H4 Neuroglioblastoma Cells. [Related pubchem assays: 1829 (Project Summary), 1814 (Primary HTS)]; type: functional; conditions: Homo sapiens
[15] = target: Glucose-6-phosphate 1-dehydrogenase (Homo sapiens, UniProt P11413); experiment: human G6PD enzyme inhibitors, dose response, selectivity assay for P. falciparum G6PD inhibitor project, biochemical, fluorescence (AID 504792); type: functional
Chain of Glucose-6-phosphate 1-dehydrogenase (P11413 whole entry): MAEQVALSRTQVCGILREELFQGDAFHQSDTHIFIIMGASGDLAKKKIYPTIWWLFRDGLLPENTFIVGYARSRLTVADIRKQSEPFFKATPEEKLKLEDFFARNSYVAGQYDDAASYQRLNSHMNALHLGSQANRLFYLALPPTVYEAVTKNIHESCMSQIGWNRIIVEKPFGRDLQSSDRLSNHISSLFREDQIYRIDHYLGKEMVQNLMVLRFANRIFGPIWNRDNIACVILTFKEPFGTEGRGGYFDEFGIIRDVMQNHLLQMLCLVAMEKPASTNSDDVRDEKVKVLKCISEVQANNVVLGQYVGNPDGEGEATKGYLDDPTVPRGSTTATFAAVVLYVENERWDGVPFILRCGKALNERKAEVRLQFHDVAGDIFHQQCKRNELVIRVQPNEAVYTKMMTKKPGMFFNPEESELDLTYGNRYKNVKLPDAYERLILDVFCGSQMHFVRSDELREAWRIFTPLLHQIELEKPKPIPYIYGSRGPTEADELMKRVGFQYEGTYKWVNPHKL

[16] = target: Luciferin 4-monooxygenase (Photinus pyralis, UniProt P08659); experiment: firefly luciferase enzyme inhibitors, dose response, biochemical, luminescence (AID 1891)
Beta-galactosidase = Beta-galactosidase (Escherichia coli, UniProt Q8VNN2); type: functional
[17] = target: T5, Voltage-gated N-type calcium channel alpha-1B subunit/Amyloid beta A4 precursor protein-binding family A member 1; type: protein assay; remark: listed apart in the source
Genome polyprotein = Genome polyprotein (dengue virus type 2, UniProt P29990); experiment: Dengue-2 NS5 methyltransferase inhibitors, primary screen, biochemical, confirmation dose response (AID 588689); type: functional
Vero = Vero cell cytotoxicity, cytotoxicity control for flavivirus capping enzyme inhibitors (AID 588742); type: functional; conditions: Chlorocebus sabaeus
BJ [18] = experiment: cytotoxicity toward BJ-TERT fibroblasts, dose response, cell-based, RAS-independent, luminescence (AID 1933); type: functional; conditions: Homo sapiens
BJ [19] = experiment: cytotoxicity toward BJ-TERT-LT-ST fibroblasts, dose response, cell-based, RAS-independent, luminescence (AID 1935); type: functional; conditions: Homo sapiens;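 also: BJ fibroblasts immortalized with TERT plus LT and ST oncogenes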
[20] = target: Induced myeloid leukemia cell differentiation protein Mcl-1 (Homo sapiens, UniProt Q07820); type: functional
[21] = cytotoxicity toward DRD oncogenic fibroblasts, dose response, cell-based, non-viral oncogenic, luminescence (AID 1934); type: functional; conditions: Homo sapiens
[22] = Luminescence Cell-Based Dose Confirmation HTS to Identify Inhibitors of Platelet Dense Granule Release. [Related pubchem assays: 1663 (Primary HTS), 1678 (Summary of Project)]; type: functional

In the case of CCN(CC)C(=O)Cn1c2ccccc2c2nc3n(c(=O)c21)CCS3, the AC50 (NIH3T3) is reported as 0.596 µM (active) and the AC50 (Candida albicans) is reported as 6.14 µM (active).

For Cc1ccc2nc(Nc3nc(O)cc(CSc4nnc(C)s4)n3)nc(C)c2c1, the AC50 (DNA topoisomerase) was 6.04 µM (active).

In the case of CN(C)c1cccc(C(=O)N/N=C/c2ccccc2F)c1, the IC50 [1] is reported as > 67.6 µM (inactive), the AC50 (Escherichia coli) is reported as 134 µM (active) and the AC50 (HEK293) is reported as 3.75 µM (active). For the same molecule, the IC50 (cells) was > 67.6 µM (inactive).

With COc1ccc(OC)c2c1C(=O)C(Cl)=C(Cl)C2=O the IC50 [2] was 11.8 µM (active), the IC50 [3] was over 32 µM and the IC50 (Beta-arrestin-1) was 1.64 µM (active). For the same molecule, the EC50 [4] was > 60 µM (not active), the EC50 [5] was > 120 µM (not active) and the EC50 (BJ [6]) was 4.49 µM (active). The AC50 (INS1) was 6.17 µM (active), the IC50 [7] was 16.8 µM (not active) and the IC50 (Beta Lactamase) was 6.76 µM (active). For the same molecule, the IC50 [8] was 2.02 µM (active), the EC50 (BJ [9]) was 5.3 µM (active) and the IC50 [10] was 48.3 µM (inactive). The AC50 [11] was 3.03 µM (active), the EC50 [12] was 4.56 µM (active) and the IC50 [13] was 7.17 µM (active). For the same molecule, the IC50 (CHO) was 0.629 µM (active), the IC50 [14] was 9.53 µM (active) and the EC50 (H4) was > 120 µM (not active). The IC50 [15] was 27 µM (inactive), the EC50 [16] was > 112 µM (not active) and the EC50 (Beta-galactosidase) was > 31.5 µM (inactive). The IC50 [17] was 0.331 µM (active), the IC50 (Genome polyprotein) was 5.23 µM (active) and the CC50 (Vero) was 14.1 µM (active). For the same molecule, the EC50 (BJ [18]) was 3.94 µM (inconclusive), the EC50 (BJ [19]) was 5.05 µM (inconclusive) and the IC50 [20] was 24.8 µM (active). For the same molecule, the EC50 [21] was 5.7 µM (inconclusive) and the EC50 [22] was 11.7 µM (active).
